Data: patent US6492416B1, “4,5-diaryl-3(2H)-furanone derivatives as cyclooxygenase-2 inhibitors” (Pacific Corporation, priority 1999, dated 2002)
In brackets after ≈: the same amount, converted by molar mass.

Legend:
COX-2 = target: T1, COX-2 (Mus musculus, UniProt Q05769); assay: Evaluation of COX-2 activity: PGE2 formation in aspirin-treated, LPS-stimulated mouse peritoneal macrophages; assay type: cell-based
T1 sequence (Q05769 18-604): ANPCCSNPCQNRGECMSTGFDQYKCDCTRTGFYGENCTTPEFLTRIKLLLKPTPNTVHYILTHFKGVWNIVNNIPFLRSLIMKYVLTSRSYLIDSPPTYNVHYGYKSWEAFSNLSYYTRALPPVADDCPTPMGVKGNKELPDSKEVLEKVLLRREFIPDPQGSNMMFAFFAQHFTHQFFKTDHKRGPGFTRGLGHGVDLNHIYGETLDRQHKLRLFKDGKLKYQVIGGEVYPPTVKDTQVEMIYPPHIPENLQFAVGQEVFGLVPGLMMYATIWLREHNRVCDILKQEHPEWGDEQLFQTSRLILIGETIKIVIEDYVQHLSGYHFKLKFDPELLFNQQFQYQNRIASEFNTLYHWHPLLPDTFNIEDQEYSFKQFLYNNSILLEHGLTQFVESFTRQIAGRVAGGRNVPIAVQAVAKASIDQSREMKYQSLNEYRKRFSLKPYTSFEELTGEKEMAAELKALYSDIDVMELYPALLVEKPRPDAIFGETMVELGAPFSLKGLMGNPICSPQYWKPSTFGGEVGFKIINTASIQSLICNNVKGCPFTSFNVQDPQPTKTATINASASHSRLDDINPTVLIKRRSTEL
Summary of the method: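 C57BL/6 peritoneal macrophages treated with 500 μM aspirin to block COX-1, adhered, then stimulated with 10 μg/ml LPS for 16 h at 37 °C to induce COX-2.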

COX-1 = target: T2, COX-1 (Mus musculus, UniProt P22437); assay: Evaluation of COX-1 activity: PGE2 formation in mouse peritoneal macrophages without aspirin and LPS treatment; assay type: cell-based
T2 sequence (P22437 27-602): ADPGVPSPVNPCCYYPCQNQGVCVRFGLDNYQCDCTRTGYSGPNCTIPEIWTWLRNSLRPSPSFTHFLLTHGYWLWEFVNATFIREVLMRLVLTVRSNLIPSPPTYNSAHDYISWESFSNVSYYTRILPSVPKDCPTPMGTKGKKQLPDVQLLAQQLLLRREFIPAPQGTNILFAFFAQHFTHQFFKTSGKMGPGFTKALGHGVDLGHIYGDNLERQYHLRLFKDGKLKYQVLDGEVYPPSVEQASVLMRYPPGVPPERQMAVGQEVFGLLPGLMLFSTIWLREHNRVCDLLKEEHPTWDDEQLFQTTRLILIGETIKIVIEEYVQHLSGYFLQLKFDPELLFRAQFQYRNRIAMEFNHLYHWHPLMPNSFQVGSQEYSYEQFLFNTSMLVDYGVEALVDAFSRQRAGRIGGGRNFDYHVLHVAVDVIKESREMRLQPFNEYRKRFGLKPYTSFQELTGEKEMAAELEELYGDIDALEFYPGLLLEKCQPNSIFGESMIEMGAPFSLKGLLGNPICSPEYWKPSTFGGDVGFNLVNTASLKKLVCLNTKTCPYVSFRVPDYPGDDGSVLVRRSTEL
Summary of the method: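 Peritoneal macrophages from C57BL/6 mice, without aspirin or LPS treatment, were plated at 1×10^6 cells/ml and fixed 2 h at 37 °C. Cells were preincubated 10 min, then given 10 μM arachidonic acid plus compound for 10 min; PGE2 was measured by RIA or EIA. IC50 came from 4–5 concentrations.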

IC50, μg/ml COX-2 (COX-2)	melting point	IC50, μg/ml COX-1 (COX-1)	SMILES
0.05 µg/mL (≈ 0.13 µM)	189 to 190 °C	50 µg/mL (≈ 130 µM)	CC(=O)c1cccc(C2=C(c3ccc(S(C)(=O)=O)cc3)OC(C)(C)C2=O)c1 [Example 5, 4-(3-acetylphenyl)-2,2-dimethyl-5-{4-(methylsulfonyl)phenyl}-3(2H)-furanone]
0.02 µg/mL (≈ 0.052 µM)	99 to 100 °C	3 µg/mL (≈ 7.8 µM)	CCCc1ccc(C2=C(c3ccc(S(C)(=O)=O)cc3)OC(C)(C)C2=O)cc1 [Example 96]
0.5 µg/mL (≈ 1.25 µM)	142 to 143 °C	50 µg/mL (≈ 125 µM)	CC1(C)OC(c2ccc(S(C)(=O)=O)cc2)=C(c2ccc(C(C)(C)C)cc2)C1=O [Example 76]
0.02 µg/mL (≈ 0.0507 µM)	139 to 140 °C	3 µg/mL (≈ 7.6 µM)	CC1(C)OC(c2ccc(S(C)(=O)=O)cc2F)=C(c2cccc(Cl)c2)C1=O [Example 322]
0.9 µg/mL (≈ 2.13 µM)	128 to 132 °C	300 µg/mL (≈ 710 µM)	CC1(C)OC(c2ccc(S(N)(=O)=O)c(Br)c2)=C(c2ccccc2)C1=O [Example 351, 5-{4-(Aminosulfonyl)-3-bromophenyl}-2,2-dimethyl-4-phenyl-3(2H)-furanone]
0.03 µg/mL (≈ 0.078 µM)	83 to 84 °C	30 µg/mL (≈ 78 µM)	CC(C)c1cccc(C2=C(c3ccc(S(C)(=O)=O)cc3)OC(C)(C)C2=O)c1 [Example 86]
0.009 µg/mL (≈ 0.0228 µM)	173 to 174 °C	3 µg/mL (≈ 7.6 µM)	CC1(C)OC(c2ccc(S(C)(=O)=O)c(Cl)c2)=C(c2ccc(F)cc2)C1=O [Example 360]
0.001 µg/mL (≈ 0.00243 µM)	208 to 209 °C	0.12 µg/mL (≈ 0.291 µM)	CC1(C)OC(c2ccc(S(N)(=O)=O)cc2)=C(c2ccc(Cl)c(Cl)c2)C1=O [Example 127]
0.2 µg/mL (≈ 0.561 µM)	115 to 117 °C	20 µg/mL (≈ 56.1 µM)	CCC1(C)OC(c2ccc(S(C)(=O)=O)cc2)=C(c2ccccc2)C1=O (stereo not drawn) [Example 31, 2-Ethyl-2-methyl-5-{4-(methylsulfonyl)phenyl}-4-phenyl-3(2H)-furanone]
0.05 µg/mL (≈ 0.126 µM)	122 to 123 °C	50 µg/mL (≈ 126 µM)	CC1(C)OC(c2ccc(S(N)(=O)=O)c(F)c2)=C(c2ccccc2Cl)C1=O [Example 304]
0.0087 µg/mL (≈ 0.0211 µM)	209 to 210 °C	1.01 µg/mL (≈ 2.45 µM)	CC1(C)OC(c2ccc(S(N)(=O)=O)cc2)=C(c2cc(Cl)cc(Cl)c2)C1=O [Example 149]
0.03 µg/mL (≈ 0.0837 µM)	182 to 183 °C	50 µg/mL (≈ 140 µM)	CC1(C)OC(c2ccc(S(C)(=O)=O)cc2)=C(c2ccccc2O)C1=O [Example 105]
0.03 µg/mL (≈ 0.0742 µM)	127 to 128 °C	5 µg/mL (≈ 12.4 µM)	CS(=O)(=O)c1ccc(C2=C(c3cc(F)cc(F)c3)C(=O)C3(CCCC3)O2)cc1 [Example 256]
